In BindingDB's records for doi:10.1007/s002109900044 (Universitat Wurzburg, 1999):

Assays:
Adenosine receptor A1 = target: T1, Adenosine receptor A1 (Homo sapiens, UniProt P30542)
T1 sequence (P30542 whole entry): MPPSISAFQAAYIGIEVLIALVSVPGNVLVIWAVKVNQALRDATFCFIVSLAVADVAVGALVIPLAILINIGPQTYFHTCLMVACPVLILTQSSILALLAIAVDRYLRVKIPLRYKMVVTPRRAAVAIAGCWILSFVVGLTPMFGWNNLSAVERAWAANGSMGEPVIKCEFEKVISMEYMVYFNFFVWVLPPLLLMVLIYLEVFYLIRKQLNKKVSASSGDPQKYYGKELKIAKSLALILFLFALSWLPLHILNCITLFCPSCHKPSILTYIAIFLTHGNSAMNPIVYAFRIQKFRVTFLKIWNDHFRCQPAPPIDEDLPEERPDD

Adenosine receptor A2a = Adenosine receptor A2a (Homo sapiens, UniProt P29274)
Adenosine receptor A2a, sequence (P29274 whole entry): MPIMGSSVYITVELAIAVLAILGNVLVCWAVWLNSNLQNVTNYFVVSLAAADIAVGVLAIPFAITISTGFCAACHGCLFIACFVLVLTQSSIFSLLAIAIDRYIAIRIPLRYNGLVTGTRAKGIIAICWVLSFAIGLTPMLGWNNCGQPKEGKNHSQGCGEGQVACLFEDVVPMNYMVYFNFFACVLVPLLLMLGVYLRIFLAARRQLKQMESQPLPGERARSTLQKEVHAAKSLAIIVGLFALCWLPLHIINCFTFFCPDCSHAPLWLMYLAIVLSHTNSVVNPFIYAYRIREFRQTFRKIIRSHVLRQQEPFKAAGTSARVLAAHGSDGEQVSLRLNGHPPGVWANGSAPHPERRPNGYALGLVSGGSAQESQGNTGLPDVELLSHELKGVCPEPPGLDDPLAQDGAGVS

Adenosine receptor A3 = target: T2, Adenosine receptor A3 (Homo sapiens, UniProt P0DMS8)
T2 sequence (P0DMS8 whole entry): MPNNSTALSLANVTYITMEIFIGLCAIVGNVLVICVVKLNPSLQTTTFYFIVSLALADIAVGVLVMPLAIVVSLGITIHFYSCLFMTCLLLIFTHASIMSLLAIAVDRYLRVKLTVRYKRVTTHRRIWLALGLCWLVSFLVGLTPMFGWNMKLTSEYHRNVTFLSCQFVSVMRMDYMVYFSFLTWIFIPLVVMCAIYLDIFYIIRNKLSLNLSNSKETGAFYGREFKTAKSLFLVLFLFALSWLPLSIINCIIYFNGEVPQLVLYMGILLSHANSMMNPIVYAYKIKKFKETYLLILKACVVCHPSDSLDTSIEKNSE

Ki (Adenosine receptor A1) [nM] | Ki (Adenosine receptor A2a) [nM] | Ki (Adenosine receptor A3) [nM] | Structure (SMILES)
8 | 180 | 14 | CCNC(=O)C1OC(n2cnc3c(N)nc(C#CCOc4ccccc4)nc32)C(O)C1O (stereo not given) [2-substituted NECA derivatives, 8]
1000 | 2200 | 42 | CCNC(=O)C1OC(n2cnc3c(N)nc(C#Cc4ccc(CCC(=O)O)cc4)nc32)C(O)C1O (stereo not given) [3-{4-[6-Amino-9-(5-ethylcarbamoyl-3,4-dihydroxy-tetrahydro-furan-2-yl)-9H-purin-2-ylethynyl]-phenyl}-propionic acid]
87 | 100 | 28 | CCNC(=O)C1OC(n2cnc3c(N)nc(C#CC4=CCCCC4)nc32)C(O)C1O (stereo not given) [5-(6-Amino-2-cyclohex-1-enylethynyl-purin-9-yl)-3,4-dihydroxy-tetrahydro-furan-2-carboxylic acid ethylamide]
560 | 620 | 6.2 | CCNC(=O)C1OC(n2cnc3c(N)nc(C#Cc4ccccc4)nc32)C(O)C1O (stereo not given) [5-(6-Amino-2-phenylethynyl-purin-9-yl)-3,4-dihydroxy-tetrahydro-furan-2-carboxylic acid ethylamide]
12 |  | 3.7 | CCNC(=O)C1OC(n2cnc3c(N)nc(C#Cc4nccs4)nc32)C(O)C1O (stereo not given) [5-(6-Amino-2-thiazol-2-ylethynyl-purin-9-yl)-3,4-dihydroxy-tetrahydro-furan-2-carboxylic acid ethylamide]
9.4 | 56 | 2.4 | CCNC(=O)C1OC(n2cnc3c(N)nc(C#CC(C)(O)c4ccccc4)nc32)C(O)C1O (stereo not given) [5-[6-Amino-2-(3-hydroxy-3-phenyl-but-1-ynyl)-purin-9-yl]-3,4-dihydroxy-tetrahydro-furan-2-carboxylic acid ethylamide]
3.3 | 14 | 1.5 | CCNC(=O)C1OC(n2cnc3c(N)nc(C#CC(C)O)nc32)C(O)C1O (stereo not given) [5-[6-Amino-2-(3-hydroxy-but-1-ynyl)-purin-9-yl]-3,4-dihydroxy-tetrahydro-furan-2-carboxylic acid ethylamide]
40 | 14 | 4.1 | CCNC(=O)C1OC(n2cnc3c(N)nc(C#CCC(C)O)nc32)C(O)C1O (stereo not given) [5-[6-Amino-2-(4-hydroxy-pent-1-ynyl)-purin-9-yl]-3,4-dihydroxy-tetrahydro-furan-2-carboxylic acid ethylamide]
38 | 25 | 4.7 | CCNC(=O)C1OC(n2cnc3c(N)nc(C#CCCCC#N)nc32)C(O)C1O (stereo not given) [5-[6-Amino-2-(5-cyano-pent-1-ynyl)-purin-9-yl]-3,4-dihydroxy-tetrahydro-furan-2-carboxylic acid ethylamide]
180 |  | 27 | CCNC(=O)C1OC(n2cnc3c(N)nc(C#CCCCc4ccccc4)nc32)C(O)C1O (stereo not given) [5-[6-Amino-2-(5-phenyl-pent-1-ynyl)-purin-9-yl]-3,4-dihydroxy-tetrahydro-furan-2-carboxylic acid ethylamide]
200 | 470 | 9.3 | CCNC(=O)C1OC(n2cnc3c(N)nc(C#Cc4ccc(C(N)=O)cc4)nc32)C(O)C1O (stereo not given) [5-{6-amino-2-[2-(4-carbamoylphenyl)ethynyl]-9H-purin-9-yl}-N-ethyl-3,4-dihydroxyoxolane-2-carboxamide]
140 | 510 | 12 | CCNC(=O)C1OC(n2cnc3c(N)nc(C#Cc4ccco4)nc32)C(O)C1O (stereo not given) [5-{6-amino-2-[2-(furan-2-yl)ethynyl]-9H-purin-9-yl}-N-ethyl-3,4-dihydroxyoxolane-2-carboxamide]
1.9 | 39 | 5.5 | CCNC(=O)[C@H]1O[C@@H](n2cnc3c(N)nc(C#C[C@@H](O)c4ccccc4)nc32)[C@H](O)[C@@H]1O [6R, (R)-PHPNECA]
2.1 | 2 | 0.75 | CCNC(=O)C1OC(n2cnc3c(N)nc(C#C[C@H](O)c4ccccc4)nc32)C(O)C1O (stereo partly drawn) [6S, (S)-PHPNECA]
 | 6.4 | 2.4 | CCCCC#Cc1nc(N)c2ncn([C@@H]3O[C@H](C(=O)NCC)[C@H](O)C3O)c2n1 (stereo partly drawn) [(2S,3R,5R)-5-[6-amino-2-(hex-1-yn-1-yl)-9H-purin-9-yl]-N-ethyl-3,4-dihydroxyoxolane-2-carboxamide]
2.7 | 3.1 | 0.42 | CCNC(=O)C1OC(n2cnc3c(N)nc(C#CC(O)c4ccccc4)nc32)C(O)C1O (stereo not given) [R,S-PHPNECA]
